The subject of this test is P388 leukemia ip, CD2F1 mice, survival T/C. As to the kind of experiment: NCI In Vivo Anticancer Drug Screen. Data for tumor model P388 Leukemia (intraperitoneal) in CD2F1 (CDF1) mice. The note with it: endpoint: median survival time, higher = longer survival. In a few lines:
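Mice carrying the transplanted tumor received test compound or vehicle. Survival was recorded in each group, and the value is the treated-group measurement divided by that of the vehicle-treated control group.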

Where [1] appears, read: dose: 50.0 mg/kg/injection, schedule: Q01DX001 (ip), vehicle: saline.
Setting [2] is: dose: 100.0 mg/kg/injection, schedule: Q01DX001 (ip), vehicle: saline.
Where [3] appears, read: dose: 200.0 mg/kg/injection, schedule: Q01DX001 (ip), vehicle: saline.
[4] abbreviates: dose: 60.0 mg/kg/injection, schedule: Q01DX005 (ip), vehicle: saline with Tween-80.
Setting [5] is: dose: 400.0 mg/kg/injection, schedule: Q01DX001 (ip), vehicle: saline.
Setting [6] is: dose: 50.0 mg/kg/injection, schedule: Q01DX005 (ip), vehicle: saline with Tween-80.
Where [7] appears, read: dose: 50.0 mg/kg/injection, schedule: Q04DX003 (ip), vehicle: saline with Tween-80.
[8] abbreviates: dose: 50.0 mg/kg/injection, schedule: Q01DX005 (ip), vehicle: Klucel (hydroxypropylcellulose) (HPC).
The mark [9] stands for this setting: dose: 100.0 mg/kg/injection, schedule: Q01DX005 (ip), vehicle: Klucel (hydroxypropylcellulose) (HPC).

Molecules are shown by their SMILES. Values joined by “and” are separate entries in the source; they are usually repeats but may differ in a detail not shown here. Identical values can stand only once. Toxic doses and inconclusive results are not listed.

Regarding `COc1c2ccccc2c(OC)c2c(OC(C)=O)c3c(c(OC(C)=O)c12)CC=CC3`, the T/C is 96 % of control (dose: 3.13 mg/kg/injection, schedule: Q01DX009 (ip), vehicle: other); 104 % of control (dose: 6.25 mg/kg/injection, schedule: Q01DX009 (ip), vehicle: other); 93 % of control (dose: 25.0 mg/kg/injection, schedule: Q01DX009 (ip), vehicle: other); 96 % of control (dose: 50.0 mg/kg/injection, schedule: Q01DX009 (ip), vehicle: other).

`COC1=CCC2=C(CC[C@H]3[C@H]2CCP3(C)=S)C1` (some centres undefined): the T/C is, setting by setting: (dose: 50.0 mg/kg/injection, schedule: Q01DX005 (ip), vehicle: saline + Tween-80 + alcohol) 115 % of control; (dose: 100.0 mg/kg/injection, schedule: Q01DX005 (ip), vehicle: saline + Tween-80 + alcohol) 106 % of control; (dose: 200.0 mg/kg/injection, schedule: Q01DX005 (ip), vehicle: saline + Tween-80 + alcohol) 101 % of control.

Consider `CC1(c2ccccc2)NC(=O)NC1=O` (centres undefined), for which the T/C is 100 % of control under setting [1], 110 % of control under setting [2] and 115 % of control under setting [3].

As to `NCC1=NCCN1`, the T/C by setting is: (dose: 60.0 mg/kg/injection, schedule: Q01DX005 (ip), vehicle: saline) 92 % of control; (dose: 120.0 mg/kg/injection, schedule: Q01DX005 (ip), vehicle: saline) 99 % of control; (dose: 240.0 mg/kg/injection, schedule: Q01DX005 (ip), vehicle: saline) 94 % of control.

Consider `COc1cccc2c1C(=O)c1c(O)c3c(c(O)c1C2=O)C[C@@](O)(C(C)=O)CC3OC1CC(NC(=O)CCCN)C(O)C(C)O1` (some centres undefined), for which the T/C was 98 % of control (dose: 6.25 mg/kg/injection, schedule: Q04DX003 (ip), vehicle: saline); 97 % of control (dose: 12.5 mg/kg/injection, schedule: Q04DX003 (ip), vehicle: saline); 100 % of control (dose: 25.0 mg/kg/injection, schedule: Q04DX003 (ip), vehicle: saline); 104 % of control (dose: 50.0 mg/kg/injection, schedule: Q04DX003 (ip), vehicle: saline).

With `N=C1C=CC2C(=Nc3ccccc3[N+]2=O)N1CCO` (centres undefined), the T/C (dose: 15.0 mg/kg/injection, schedule: Q01DX005 (ip), vehicle: saline with Tween-80) is 99 % of control and 105 % of control; the T/C (dose: 30.0 mg/kg/injection, schedule: Q01DX005 (ip), vehicle: saline with Tween-80) is 101 % of control and 112 % of control; the T/C under setting [4] was 100 % of control and 103 % of control.

In the case of `CO/C=C/c1cc2c(cc1Br)OCO2`, the T/C under setting [4] is 105 % of control; the T/C (dose: 120.0 mg/kg/injection, schedule: Q01DX005 (ip), vehicle: saline with Tween-80) was 111 % of control; the T/C (dose: 240.0 mg/kg/injection, schedule: Q01DX005 (ip), vehicle: saline with Tween-80) is 97 % of control.

On to `C1=C(B2OCCNO2)CCCC1`, for which the T/C under setting [2] was 101 % of control, the T/C under setting [3] is 96 % of control and the T/C under setting [5] is 104 % of control.

Consider `CCN(CC)CCC(CNc1c2ccc(Cl)cc2nc2ccc(OC)cc12)c1ccccc1` (centres undefined), for which the T/C (dose: 12.5 mg/kg/injection, schedule: Q01DX005 (ip), vehicle: saline with Tween-80) was 98 % of control; the T/C (dose: 25.0 mg/kg/injection, schedule: Q01DX005 (ip), vehicle: saline with Tween-80) was 100 % of control; the T/C under setting [6] is 108 % of control and 115 % of control.

Turning to `CCn1c(Cl)c(/C=N\Nc2ccc([N+](=O)[O-])cc2)c2ccccc21`, the T/C is 94 % of control under setting [2], 95 % of control under setting [3] and 95 % of control under setting [5].

On to `NC(CSC(c1ccccc1)(c1ccccc1)c1ccc(Cl)cc1)C(=O)O` (centres undefined), for which the T/C is 177 % of control (dose: 33.0 mg/kg/injection, schedule: Q04DX003 (ip), vehicle: saline with Tween-80); 181 % of control and 272 % of control under setting [7]; 200 % of control (dose: 75.0 mg/kg/injection, schedule: Q04DX003 (ip), vehicle: saline with Tween-80); 100 % of control (dose: 200.0 mg/kg/injection, schedule: Q04DX003 (ip), vehicle: saline with Tween-80).

As for `O=C(O)C(O)C(O)C1[O][Sb][O]C1C(=O)O` (centres undefined), the T/C was 110 % of control (dose: 12.5 mg/kg/injection, schedule: Q01DX005 (ip), vehicle: saline); 100 % of control and 101 % of control and 94 % of control under setting [6]; 100 % of control and 108 % of control and 109 % of control (dose: 100.0 mg/kg/injection, schedule: Q01DX005 (ip), vehicle: saline with Tween-80); 111 % of control and 117 % of control (dose: 200.0 mg/kg/injection, schedule: Q01DX005 (ip), vehicle: saline with Tween-80); 118 % of control and 120 % of control (dose: 400.0 mg/kg/injection, schedule: Q01DX005 (ip), vehicle: saline with Tween-80).

As for `CC(C)=C1N(C(C)C)C(=C(C)C)N(C(C)C)C(=C(C)C)N1C(C)C`, the T/C reads like this: under setting [8], 96 % of control; under setting [9], 100 % of control; (dose: 200.0 mg/kg/injection, schedule: Q01DX005 (ip), vehicle: Klucel (hydroxypropylcellulose) (HPC)) 89 % of control.

Consider `C=C[C@H]1[C@H](OC2OC(CO)C(O)C(O)C2O)OC=C2C(=O)OCC[C@H]21` (some centres undefined), for which the T/C is 95 % of control (dose: 0.75 mg/kg/injection, schedule: Q01DX005 (ip), vehicle: water); 95 % of control (dose: 1.5 mg/kg/injection, schedule: Q01DX005 (ip), vehicle: water); 93 % of control (dose: 3.0 mg/kg/injection, schedule: Q01DX005 (ip), vehicle: water); 93 % of control (dose: 6.0 mg/kg/injection, schedule: Q01DX005 (ip), vehicle: water).

On to `Nc1cnns1`, for which the T/C by setting is: (dose: 11.25 mg/kg/injection, schedule: Q01DX009 (ip), vehicle: water) 100 % of control; (dose: 22.5 mg/kg/injection, schedule: Q01DX009 (ip), vehicle: water) 102 % of control; (dose: 45.0 mg/kg/injection, schedule: Q01DX009 (ip), vehicle: water) 105 % of control; (dose: 90.0 mg/kg/injection, schedule: Q01DX009 (ip), vehicle: water) 119 % of control; (dose: 180.0 mg/kg/injection, schedule: Q01DX009 (ip), vehicle: water) 105 % of control.

On to `NC(N)=O.NC(N)=O.NC(N)=O.NC(N)=O.NC(N)=O.NC(N)=O.[O-][Cl+3]([O-])([O-])O.[V]`, for which the T/C was 94 % of control (dose: 25.0 mg/kg/injection, schedule: Q04DX003 (ip), vehicle: saline with Tween-80); 97 % of control under setting [7]; 109 % of control (dose: 100.0 mg/kg/injection, schedule: Q04DX003 (ip), vehicle: saline with Tween-80).

For `CC(C)(C)N1CC(O)C1`, the T/C is, setting by setting: under setting [1], 100 % of control; under setting [2], 98 % of control; under setting [3], 93 % of control.

With `CCCCOc1cccc2c(NCCNc3c4ccccc4nc4c(OCCCC)cccc34)c3ccccc3nc12`, the T/C by setting is: (dose: 0.62 mg/kg/injection, schedule: Q01DX009 (ip), vehicle: other) 105 % of control; (dose: 1.25 mg/kg/injection, schedule: Q01DX009 (ip), vehicle: other) 109 % of control; (dose: 2.5 mg/kg/injection, schedule: Q01DX009 (ip), vehicle: other) 101 % of control; (dose: 5.0 mg/kg/injection, schedule: Q01DX009 (ip), vehicle: other) 100 % of control; (dose: 10.0 mg/kg/injection, schedule: Q01DX009 (ip), vehicle: other) 100 % of control.

In the case of `Cc1ccc2nccnc2c1`, the T/C runs as follows: (dose: 50.0 mg/kg/injection, schedule: Q01DX009 (ip), vehicle: saline) 101 % of control; (dose: 100.0 mg/kg/injection, schedule: Q01DX009 (ip), vehicle: saline) 99 % of control; (dose: 200.0 mg/kg/injection, schedule: Q01DX009 (ip), vehicle: saline) 101 % of control; (dose: 400.0 mg/kg/injection, schedule: Q01DX009 (ip), vehicle: saline) 100 % of control.

In the case of `CC1=CO/C(=C\[Si](C)(C)C)OC1c1ccccc1` (centres undefined), the T/C was 104 % of control (dose: 100.0 mg/kg/injection, schedule: Q01DX001 (ip), vehicle: saline with Tween-80); 108 % of control (dose: 200.0 mg/kg/injection, schedule: Q01DX001 (ip), vehicle: saline with Tween-80); 103 % of control (dose: 400.0 mg/kg/injection, schedule: Q01DX001 (ip), vehicle: saline with Tween-80).

For the compound `CC1(C)N=C(N)N=C(N)N1c1ccc(C(N)=O)cc1`, the T/C (dose: 25.0 mg/kg/injection, schedule: Q01DX005 (ip), vehicle: Klucel (hydroxypropylcellulose) (HPC)) was 100 % of control and 101 % of control; the T/C under setting [8] is 99 % of control and 100 % of control; the T/C under setting [9] is 101 % of control and 98 % of control.
